Test results: ChEMBL document CHEMBL4622953, “Synthesis and biological evaluation of thioadatanserin and its dialkylated products as partial 5-HTR1A agonists and 5-HTR2A antagonists for potential use in depression and anxiety disorders” (Bioorg Med Chem Lett, 2020)
Structures can show the parent of a compound that is named as a salt.

Experiments:
Format in all cases: cell-based
[1] = biological target: T1, 5-hydroxytryptamine receptor 2C (Homo sapiens, UniProt P28335); experiment: Antagonist activity at recombinant human 5-HT2C expressed in human U2OS cells by pathhunter beta-arrestin assay
T1 sequence (P28335 whole entry): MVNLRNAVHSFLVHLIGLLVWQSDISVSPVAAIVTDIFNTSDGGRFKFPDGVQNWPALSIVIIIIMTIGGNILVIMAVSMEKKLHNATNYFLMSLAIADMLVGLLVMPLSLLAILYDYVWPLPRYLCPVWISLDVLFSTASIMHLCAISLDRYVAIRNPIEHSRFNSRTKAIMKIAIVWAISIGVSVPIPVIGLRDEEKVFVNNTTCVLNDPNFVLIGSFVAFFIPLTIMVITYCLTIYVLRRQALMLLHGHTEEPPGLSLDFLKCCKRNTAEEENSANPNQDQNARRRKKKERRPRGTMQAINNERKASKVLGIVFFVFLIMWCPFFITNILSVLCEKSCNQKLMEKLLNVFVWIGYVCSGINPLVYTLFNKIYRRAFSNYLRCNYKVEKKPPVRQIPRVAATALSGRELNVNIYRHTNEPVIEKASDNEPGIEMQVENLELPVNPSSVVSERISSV

[2] = biological target: 5-hydroxytryptamine receptor 2A (Homo sapiens, UniProt P28223); experiment: Antagonist activity at recombinant human 5-HT2A expressed in human U2OS cells by pathhunter beta-arrestin assay
[3] = biological target: T2, 5-hydroxytryptamine receptor 1A (Homo sapiens, UniProt P08908); experiment: Partial agonist activity at recombinant human 5-HT1A expressed in CHO-K1 cells by pathhunter beta-arrestin assay
T2 sequence (P08908 whole entry): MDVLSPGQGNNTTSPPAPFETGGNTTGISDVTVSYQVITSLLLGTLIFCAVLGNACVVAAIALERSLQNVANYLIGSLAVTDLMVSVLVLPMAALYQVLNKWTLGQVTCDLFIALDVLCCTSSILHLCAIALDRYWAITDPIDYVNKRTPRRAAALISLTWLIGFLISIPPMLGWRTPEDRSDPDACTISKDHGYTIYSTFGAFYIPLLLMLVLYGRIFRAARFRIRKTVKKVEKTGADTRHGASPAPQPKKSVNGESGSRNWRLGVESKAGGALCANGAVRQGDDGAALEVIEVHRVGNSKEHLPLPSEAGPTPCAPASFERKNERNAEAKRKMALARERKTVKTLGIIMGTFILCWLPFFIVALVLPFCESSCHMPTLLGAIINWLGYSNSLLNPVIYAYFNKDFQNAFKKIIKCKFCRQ

Sequence of 5-hydroxytryptamine receptor 2A (P28223 whole entry): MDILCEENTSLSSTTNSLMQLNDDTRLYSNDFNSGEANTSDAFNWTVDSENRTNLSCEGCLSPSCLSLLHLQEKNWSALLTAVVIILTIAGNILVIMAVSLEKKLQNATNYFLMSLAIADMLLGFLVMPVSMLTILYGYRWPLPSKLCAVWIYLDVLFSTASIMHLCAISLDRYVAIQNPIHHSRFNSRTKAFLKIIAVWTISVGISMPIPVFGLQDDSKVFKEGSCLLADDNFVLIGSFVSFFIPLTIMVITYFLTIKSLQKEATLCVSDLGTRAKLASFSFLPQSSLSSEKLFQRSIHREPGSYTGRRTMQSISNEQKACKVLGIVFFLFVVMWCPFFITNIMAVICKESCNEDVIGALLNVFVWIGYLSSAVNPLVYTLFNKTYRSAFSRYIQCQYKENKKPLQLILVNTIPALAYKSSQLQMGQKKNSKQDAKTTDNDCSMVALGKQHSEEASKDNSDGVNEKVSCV

Row | SMILES | IC50 [1] | IC50 [2] | EC50 [3]
1 | S=C(NCCN1CCN(c2ncccn2)CC1)C12CC3CC(CC(C3)C1)C2 | > 3.33 µM | 0.0623 µM | 
2 | CS/C(=N/CC[N+]1(C)CCN(c2ncccn2)CC1)C12CC3CC(CC(C3)C1)C2 |  | > 10 µM | > 10 µM
3 | O=C(NCCN1CCN(c2ncccn2)CC1)C12CC3CC(CC(C3)C1)C2 [ADATANSERIN HYDROCHLORIDE] | 1.26 µM | 0.0337 µM | 0.0021 µM
4 | Cc1cc2c(cc1Cl)N(C(=O)Nc1ccc(Oc3cccnc3C)nc1)CC2 [SB-242084] | 0.00033 µM |  | 
5 | c1ccc(CS/C(=N/CC[N+]2(Cc3ccccc3)CCN(c3ncccn3)CC2)C23CC4CC(CC(C4)C2)C3)cc1 |  | > 10 µM | 
